We go through 18 molecules from patent publication US12649750B2, “Macrocyclic compounds, compositions, and methods of using thereof” (Sionna Therapeutics Inc., priority 2022, dated 2026).

The target of this test is T1, NBD1 (Homo sapiens, UniProt P13569).
T1 construct: Purified recombinant NBD1 was produced using previously described methods; made in house
Briefly: Aggregation analysis using differential static light scattering (DSLS), thermal stability of NBD1 (ΔTagg). It counts as binding. The settings on record: ΔTagg versus DMSO control, NBD1 0.2 mg/ml. Here is the method: Example 386. Aggregation Analysis Using Differential Static Light Scattering (DSLS)
Purified recombinant NBD1 was produced using previously described methods (A. Schmidt, J. L. Mendoza, P. J. Thomas (2011) Biochemical and Biophysical Approaches to Probe CFTR Structure (365-376) M. D. Amaral, K. Kunzelmann (eds.), Cystic Fibrosis, Methods in Molecular Biology 741, Springer Science+Business Media). The effect of test compounds on thermal stability of NBD1 was evaluated by differential static light scattering (DSLS) using the Harbinger Stargazer-384 instrument (Epiphyte Three, Toronto, Canada). Test compounds were dissolved and diluted to desired concentrations in 100% DMSO. The compounds or DMSO controls (100 nL) were stamped into wells of a […] low volume optical plate (Corning Inc., Corning, NY) using the Echo 555 acoustic liquid handler (Labcyte Inc., San Jose, CA).
NBD1 protein was diluted to 0.2 mg/ml in S200 buffer (50 mM Tris-HCl, 150 mM NaCl, 5 mM MgCl2, 2 mM ATP, 2 mM DTT, pH7.6) containing 1% glycerol. 10 uL of protein solution was aliquoted into the 384-well plate harboring the test compounds and 10 uL mineral oil was overlaid onto the protein solution, using the epMotion robotic liquid handler (Eppendorf North America, Hauppauge, NY). After placing into the Stargazer instrument, the plate was heated at 1° C. per minute to 70° C. Images were captured from 25° C. to 70° C. every 0.5° C. At the end of the experiment run, instrument software integrated image files and analyzed data automatically. A […] regression curve was generated for each well, representing the increase in light scattering over time. A temperature of aggregation (Tagg) was calculated based on the inflection point of the curve. To better compare data across experiments the average Tagg for DMSO control wells was calculated and subtracted from values for wells containing compounds to obtain a “ΔTagg” value. These ΔTagg values reflect stabilizing efficacy of the compounds. As set forth in Table 2 below, an ΔTagg value less than or equal to 5° C. is marked “A”; a value above 5° C. and less than or equal to 10° C. is marked “B”; a value greater than 10° C. and less than or equal to 25° C. is marked “C”.

T1 sequence (P13569 423-646 limits assumed): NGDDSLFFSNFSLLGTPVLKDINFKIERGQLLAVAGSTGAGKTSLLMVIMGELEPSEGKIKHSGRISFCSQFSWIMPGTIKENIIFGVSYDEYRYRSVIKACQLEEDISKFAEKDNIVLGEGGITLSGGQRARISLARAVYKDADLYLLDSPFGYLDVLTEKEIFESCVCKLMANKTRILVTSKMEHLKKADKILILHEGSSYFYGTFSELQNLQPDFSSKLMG

On to `C[C@H](Cc1cccc(C2NCCOCCS(=O)(=O)Cc3c(c(F)c(F)c4[nH]ccc34)Oc3ccc(F)c(c3)-c3nc2nn3C)c1)C(=O)O` (single isomer, unassigned) [Compound 381A], for which the “DSLS 3D (100 μM ΔT)” value is “A (an ΔTagg value less than or equal to 5 °C is marked “A”)”.

For `Cn1nc2nc1-c1cc(ccn1)[S+]([O-])c1c(F)cc3[nH]ccc3c1CCS(=O)(=O)CC(C)(C)CCC[C@]2(C)c1cccc(C[C@H](O)CO)c1` (single isomer, unassigned) [Compound 334], the “DSLS 3D (100 μM ΔT)” value was “B (a value above 5 °C and less than or equal to 10 °C is marked “B”)”. For `Cn1nc2nc1-c1cc(ccn1)[S+]([O-])c1c(F)c(F)c3[nH]ccc3c1CCS(=O)(=O)CC(C)(C)CCC[C@]2(C)c1cccc(CC2(C(=O)O)CC2)c1` (single isomer, unassigned) [Compound 309] the value was “B (a value above 5 °C and less than or equal to 10 °C is marked “B”)”; for `Cn1nc2nc1-c1cc(ccn1)[S+]([O-])c1c(F)cc3[nH]ccc3c1CCS(=O)(=O)CC(C)(C)CCC[C@]2(C)c1cccc(C[C@@H](O)CO)c1` (single isomer, unassigned) [Compound 337], “A (an ΔTagg value less than or equal to 5 °C is marked “A”)”. As for `C[C@H](Cc1cccc([C@@]2(C)CCCC(C)(C)CS(=O)(=O)CCc3c(c(F)c(F)c4[nH]cc(C#N)c34)Oc3ccc(F)c(c3)-c3nc2nn3C)c1)C(=O)O` [Compound 322, (2R)-3-[3-[(6R)-17-Cyano-21,22,28-trifluoro-3,6,10,10-tetramethyl-12,12-dioxo-24-oxa-12λ6-thia-3,4,19,30-tetrazapentacyclo[23.3.1.12,5.015,23.016,20]triaconta-1(29),2(30),4,15,17,20,22,25,27-nonaen-6-yl]phenyl]-2-methyl-propanoic Acid], the entry is “B (a value above 5 °C and less than or equal to 10 °C is marked “B”)”; as for `C[C@H](Cc1cccc([C@@]2(C)CCCC(C)(C)CS(=O)(=O)CCc3c(c(F)cc4[nH]ccc34)Sc3cc(c(F)cc3N)-c3nc2nn3C)c1)C(=O)O` [Compound 377, (2R)-3-[3-[(6R)-26-Amino-22,28-difluoro-3,6,10,10-tetramethyl-12,12-dioxo-12λ6,24-dithia-3,4,19,30-tetrazapentacyclo[23.3.1.12,5.015,23.016,20]triaconta-1(29),2(30),4,15,17,20,22,25,27-nonaen-6-yl]phenyl]-2-methyl-propanoic Acid], “B (a value above 5 °C and less than or equal to 10 °C is marked “B”)”; as for `Cn1nc2nc1-c1cc(ccn1)[S+]([O-])c1c(F)cc3[nH]cc(CC(=O)O)c3c1CCS(=O)(=O)CC(C)(C)CCC[C@]2(C)c1ccccc1` (single isomer, unassigned) [Compound 365], “A (an ΔTagg value less than or equal to 5 °C is marked “A”)”.

In the case of `CC1c2ccnc(c2)-c2nc(nn2C)[C@@](C)(c2cccc(C[C@@H](C)C(=O)O)c2)CCCC(C)(C)CS(=O)(=O)CCc2c1c(F)c(F)c1[nH]ccc21` (single isomer, unassigned) [Compound 317B], the “DSLS 3D (100 μM ΔT)” value is “A (an ΔTagg value less than or equal to 5 °C is marked “A”)”.

For `C[C@H](Cc1cccc([C@@]2(C)CCCC(C)(C)CS(=O)(=O)CCc3c(c(F)c(F)c4[nH]ccc34)S(=O)(=O)c3ccnc(c3)-c3nc2nn3C)c1)C(=O)O` [Compound 301, (2R)-3-[3-[(6R)-21,22-difluoro-3,6,10,10-tetramethyl-12,12,24,24-tetraoxo-12λ6,24λ6-dithia-3,4,19,28,30-pentazapentacyclo[23.3.1.12,5.015,23.016,20]triaconta-1(29),2(30),4,15,17,20,22,25,27-nonaen-6-yl]phenyl]-2-methyl-propanoic Acid], the “DSLS 3D (100 μM ΔT)” value was “A (an ΔTagg value less than or equal to 5 °C is marked “A”)”. `C[C@H](Cc1cccc([C@@]2(C)CCCC(C)(C)CS(=O)(=O)CCc3c(c(F)c(F)c4[nH]ccc34)[S+]([O-])c3ccc(F)c(c3)-c3nc2nn3C)c1)C(=O)O` (single isomer, unassigned) [Compound 319]: the “DSLS 3D (100 μM ΔT)” value is “B (a value above 5 °C and less than or equal to 10 °C is marked “B”)”. `Cn1nc2nc1-c1cc(ccc1F)Sc1c(F)c(F)c3[nH]cc(CC(=O)O)c3c1CCS(=O)(=O)CC(C)(C)CCC[C@]2(C)c1ccccc1` [Compound 325, 2-[(6R)-21,22,28-Trifluoro-3,6,10,10-tetramethyl-12,12-dioxo-6-phenyl-12λ6,24-dithia-3,4,19,30-tetrazapentacyclo[23.3.1.12,5.015,23.016,20]triaconta-1(29),2(30),4,15,17,20,22,25,27-nonaen-17-yl]acetic Acid]: the “DSLS 3D (100 μM ΔT)” value is “B (a value above 5 °C and less than or equal to 10 °C is marked “B”)”. For `Cc1c[nH]c2c(F)c(F)c3c(c12)CCS(=O)(=O)CC(C)(C)CCC[C@](C)(c1cccc(C[C@@H](C)C(=O)O)c1)c1nc(n(C)n1)-c1cc(ccc1F)O3` [Compound 321, (2R)-2-Methyl-3-[3-[(6R)-21,22,28-trifluoro-3,6,10,10,17-pentamethyl-12,12-dioxo-24-oxa-12λ6-thia-3,4,19,30-tetrazapentacyclo[23.3.1.12,5.015,23.016,20]triaconta-1(29),2(30),4,15,17,20,22,25,27-nonaen-6-yl]phenyl]propanoic Acid] the value was “A (an ΔTagg value less than or equal to 5 °C is marked “A”)”. For `C[C@@H](Cc1cccc([C@@]2(C)CCCC(C)(C)CS(=O)(=O)CCc3c(c(F)cc4[nH]ccc34)S(=O)(=O)c3ccnc(c3)-c3nc2nn3C)c1)C(=O)O` [Compound 347, (2S)-3-[3-[(6R)-22-Fluoro-3,6,10,10-tetramethyl-12,12,24,24-tetraoxo-12λ6,24λ6-dithia-3,4,19,28,30-pentazapentacyclo[23.3.1.12,5.015,23.016,20]triaconta-1(29),2(30),4,15,17,20,22,25,27-nonaen-6-yl]phenyl]-2-methyl-propanoic Acid] the value was “B (a value above 5 °C and less than or equal to 10 °C is marked “B”)”; for `Cn1nc2nc1-c1cc(ccc1F)S(=O)(=O)c1c(F)c(F)c3[nH]ccc3c1CCS(=O)(=O)CC(C)(C)CCC[C@]2(C)c1cccc(CC(C)(C)C(=O)O)c1` [Compound 358, 2,2-Dimethyl-3-[3-[(6R)-21,22,28-trifluoro-3,6,10,10-tetramethyl-12,12,24,24-tetraoxo-12λ6,24λ6-dithia-3,4,19,30-tetrazapentacyclo[23.3.1.12,5.015,23.016,20]triaconta-1(29),2(30),4,15,17,20,22,25,27-nonaen-6-yl]phenyl]propanoic Acid], “A (an ΔTagg value less than or equal to 5 °C is marked “A”)”; for `C[C@@H](Cc1cccc([C@@]2(C)CCCC(C)(C)CS(=O)(=O)CC(N)c3c(c(F)cc4[nH]ccc34)Sc3ccc(F)c(c3)-c3nc2nn3C)c1)C(N)=O` (single isomer, unassigned) [Compound 370B], “A (an ΔTagg value less than or equal to 5 °C is marked “A”)”.

Take `CC1c2ccnc(c2)-c2nc(nn2C)[C@@](C)(c2cccc(C[C@H](C)C(=O)O)c2)CCCC(C)(C)CS(=O)(=O)CCc2c1c(F)c(F)c1[nH]ccc21` (single isomer, unassigned) [Compound 316B]: the “DSLS 3D (100 μM ΔT)” value is “A (an ΔTagg value less than or equal to 5 °C is marked “A”)”.

Take `C[C@@H](Cc1cccc([C@@]2(C)CCCC(C)(C)CS(=O)(=O)CCc3c(c(F)cc4[nH]ccc34)S(=O)(=O)c3ccc(F)c(c3)-c3nc2nn3C)c1)C(=O)O` [Compound 329, (2S)-3-[3-[(6R)-22,28-Difluoro-3,6,10,10-tetramethyl-12,12,24,24-tetraoxo-12λ6,24λ6-dithia-3,4,19,30-tetrazapentacyclo[23.3.1.12,5.015,23.016,20]triaconta-1(29),2(30),4,15,17,20,22,25,27-nonaen-6-yl]phenyl]-2-methyl-propanoic Acid]: the “DSLS 3D (100 μM ΔT)” value was “B (a value above 5 °C and less than or equal to 10 °C is marked “B”)”. As for `CC1(C)CCCC(C)(c2cccc(CCC(=O)O)c2)c2csc(n2)-c2cc(ccc2F)Oc2c(F)cc3[nH]ccc3c2CCS(=O)(=O)C1` (stereo not drawn) [Compound 49, 3-[3-(22,28-Difluoro-6,10,10-trimethyl-12,12-dioxo-24-oxa-3,12lambda6-dithia-19,30-diazapentacyclo[23.3.1.12,5.015,23.016,20]triaconta-1(29),2(30),4,15,17,20,22,25,27-nonaen-6-yl)phenyl]propanoic acid], the entry is “C (a value greater than 10 °C and less than or equal to 25 °C is marked “C”)”.
